Laboratory results as given in US20260356887A1, “NOVEL MYD88 INHIBITOR FOR TREATMENT OF AUTOIMMUNE DISEASES AND USES THEREOF” (S&K THERAPEUTICS, priority 2023, published 2026).
Structures can show the parent of a compound that is named as a salt. One block for each compound: values may come before it. No end group written: not given here.

Tests used:
[1] = tested on: C57BL/6 mice with MOG35-55-induced EAE; assay: MOG35-55-induced experimental autoimmune encephalomyelitis (EAE) model; assay type: in vivo, mouse
Protocol: Eight-week-old female C57BL/6 (B6) mice (Orient Bio, Korea) were maintained in a specific pathogen-free environment on a standard laboratory ad libitum diet. All experiments were approved by the Animal Care and Use Committee [NDIC Approval Nos. 12022111 (EAE) and I2022053-3 (psoriasis), Hwaseong, Korea] and were performed in accordance with relevant guidelines and regulations.
EAE was induced in mice using the Hooke Kit (MOG35-55/complete Freund's adjuvant (CFA) Emulsion PTX (Hooke Laboratories, LLC, Lawrence, MA, USA)) according to the manufacturer's protocol. Mice were immunized subcutaneously with myelin oligodendrocyte glycoprotein emulsified in complete Freund's adjuvant. […]
Mice were weighed and examined daily, and EAE symptoms were assessed using the following standard scoring system: 0-6: 0, no symptoms; 1, limp tail; 2, limp tail and hind limb paralysis; 3, paralysis of one or more hind limbs; 4, complete hind limb and hindquarter paralysis; 5, hindquarter paralysis with forelimb paralysis; and 6, death. […]
To investigate the therapeutic potential of MyDIP2-4 on EAE progression, mice were immunized with MOG35-55 peptide in CFA and pertussis toxin was administered once on day 0 and again 24 hours later. […] Mouse body weight and EAE clinical scores were recorded three times a week: days 0, 2, 5, 7, 9, 12, 14, 16, 19, and 21.

RAW 264.7 cells = assay: Macrophage viability (MTT assay) in RAW 264.7 cells; assay type: cell-based; details: mouse macrophages; 50 μM; 24 hours
Protocol: THP-1 and RAW 264.7 cells (ATCC, Manassas, VA, USA) were cultured at 37 °C and 5% CO2 in RPMI (Roswell Park Memorial Institute) medium and Dulbecco's modified Eagle medium supplemented with fetal bovine serum (FBS, 10%), 4 mM L-glutamine, 1 mM sodium pyruvate, penicillin (100 units/ml), and streptomycin (0.1 mg/ml). THP-1 cells, which are monocytes, were differentiated into macrophages by treatment with 80 nM phorbol 12-myristate 13-acetate (PMA, Sigma-Aldrich) for 24 hours. The cells were cultured at 37 °C and 5% CO2 in a humidified incubator (Thermo Fisher Scientific, Inc.), and the medium was replaced every 18 hours.
To evaluate the cytotoxic effect of the peptide on mouse and human macrophages, RAW 264.7 cells and THP-1-derived macrophages were seeded at respective densities of 5×10^4/well and 2×10^5/well in 96-well plates (BD Biosciences, San Jose, CA, USA) followed by culture overnight at 37 °C in a humidified incubator. After treating the cells with the peptide at the corresponding concentration for 24 hours, viability was measured using 3-(4,5-dimethylthiazol-2-yl)-2,5-diphenyltetrazolium bromide (MTT) assay (Sigma-Aldrich). […] Relative cell viability was calculated by measuring absorbance at 570 nm, and the untreated control group was designated as having a relative viability of 100%. […]

human MyD88 protein = human MyD88 protein (Homo sapiens, UniProt Q99836); assay: Surface plasmon resonance (SPR) analysis of MyDIP2-4 and MyD88; assay type: binding; details: MyD88 immobilized on NTA chip, MyDIP2-4 0.8 to 12.8 μM in PBS
Protocol: The biophysical interactions between MyDIP2-4 and MyD88 were evaluated using SPR analysis in an iMSPR-mini system (icluebio, Seongnam, Korea). MyD88 protein was immobilized on the surface of a nitrilotriacetic acid (NTA) sensor chip at a concentration of 50 μg/ml. MyDIP2-4 was injected into the MyD88-binding chip at various concentrations ranging from 0.8 to 12.8 μM (dissolved in PBS) at a flow rate of 50 μl/min. PBS was used as a running buffer and injected into the empty channel as a reference. Experiments were performed twice using freshly prepared reagents, and data were analyzed using TraceDrawer software (Ridgeview Instruments; Uppsala, Sweden).
SPR technology was used to evaluate the biophysical interaction between the MyDIP2-4 peptide and the MyD88 protein. SPR analysis involves immobilizing the MyD88 protein on the surface of a sensor chip and then flowing the MyDIP2-4 peptide at various concentrations.

[2] = tested on: C57BL/6 mice with IMQ-induced psoriasis; assay: Imiquimod-induced psoriasis model; assay type: in vivo, mouse; details: MyDIP2-4 5 and 20 mg/kg i.p., dexamethasone 10 mg/kg oral
Protocol: Six-week-old female C57BL/6 mice (Orient Bio, Seongnam, Korea) were housed under specific pathogen-free conditions on a standard laboratory ad libitum diet. Animal experiments related to psoriasis were approved by the Animal Care and Use Committee [NDIC Approval Nos. 12022111 (EAE) and I2022053-3 (psoriasis), Hwaseong, Korea] and were performed in accordance with relevant guidelines and regulations.
Disease was induced by topical application of Aldara cream (Donga ST; Seoul, Korea) containing 5% imiquimod onto the back of six-week-old female C57BL/6 mice for 5 consecutive days. MyDIP2-4 was administered intraperitoneally at doses of 5 and 20 mg/kg. As a positive control group, dexamethasone (Sigma-Aldrich; cat. No. D1756) was administered orally at a dose of 10 mg/kg. Five days later, mice were sacrificed under respiratory anesthesia, and skin lesions were collected for histological examination.
An objective scoring system to quantify the severity of back skin inflammation was established based on the PASI scoring system, a widely used clinical tool to assess psoriasis severity. On a scale from 0 to 4, factors such as erythema, scaling, wrinkles, and thickness were individually assessed as follows: 0, none; 1, weak; 2, moderate; 3, significant; and 4, very evident. Under the careful supervision of experienced investigators, erythema, scaling, and thickness were graded. The cumulative score (erythema+scaling+thickness score, scale 0-12) indicates the severity of psoriasis symptoms.
Skin tissue was removed, the upper layer was fixed in neutral formalin, and H&E staining and IHC were performed. Epidermal thickness of skin tissue was measured using H&E staining. IL-17, KI-67, and IL-23 levels were measured using IHC with the aid of antibodies against IL-17A (Thermo Fisher Scientific; cat. No. PA5-79470), KI-67 (Cell Signaling; cat. No. 12202), and IL-23 (Novus Biologicals; cat. No. NBP1-76697).
To establish an IMQ-induced psoriasis model, Aldara cream containing 5% imiquimod was topically applied onto the back of six-week-old female C57BL/6 mice for 5 consecutive days. […]

Sequence of human MyD88 protein (Q99836 whole entry): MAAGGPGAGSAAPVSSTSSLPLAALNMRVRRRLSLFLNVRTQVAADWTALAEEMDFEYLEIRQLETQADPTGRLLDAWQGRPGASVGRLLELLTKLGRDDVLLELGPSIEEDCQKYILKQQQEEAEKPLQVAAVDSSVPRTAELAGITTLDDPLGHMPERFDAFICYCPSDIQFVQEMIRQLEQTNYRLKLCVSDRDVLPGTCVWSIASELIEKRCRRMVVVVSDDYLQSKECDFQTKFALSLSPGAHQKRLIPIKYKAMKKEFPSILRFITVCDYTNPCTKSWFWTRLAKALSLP

Compound: COC(=O)/C=C/C(=O)OC [DMF, dimethyl fumarate]
EAE clinical score compared to MyDIP2-4 ([1]; day 21, DMF 100 mg/kg vs MyDIP2-4 40 mg/kg): reduced clinical scores

kon (human MyD88 protein; read-out: rate constant for association (Ka)): 3.7 M⁻¹ s⁻¹
koff (human MyD88 protein; read-out: rate constant for dissociation (Kd)): 1.37e-07 s⁻¹
Compound: RQIKIWFQNRRMKWKKWLWFILFKKLSLP [MyDIP2-4]
cytotoxicity (MTT) (RAW 264.7 cells): not cytotoxic
body weight compared to DMF-treated mice (EAE) ([1]; MyDIP2-4 40 mg/kg i.p. once daily, DMF 100 mg/kg): no difference in body weight

Compound: C[C@@H]1C[C@H]2[C@@H]3CCC4=CC(=O)C=C[C@]4(C)[C@@]3(F)[C@@H](O)C[C@]2(C)[C@@]1(O)C(=O)CO [dexamethasone]
epidermal thickness ([2]; H&E): significantly reduced
IL-17 expression in skin tissue ([2]; IHC): did not inhibit
KI-67 in skin tissue (KI-67-positive cells) ([2]; IHC): significant decrease
